Results taken from patent US20250376441A1, “NOVEL COMPOUND AND PHARMACEUTICAL COMPOSITION COMPRISING SAME AS ACTIVE INGREDIENT” (Industry-Academic Cooperation Foundation, Yonsei University, priority 2017, published 2025).
One block for each compound: values may come before it.

Tests used:
[1] = test system: Salmonella typhimurium TA98; test: Ames reverse mutation test, TA98
Protocol: (§1) For each strain, treatment with a single concentration of 200 μg/plate was performed in triplicate and mutation was checked.

[2] = molecular target: AMP-activated protein kinase (AMPK); test: AMPK kinase assay (luminescence, purified enzyme, ATP, substrate peptide); type: biochemical; conditions: AMPK activation
Protocol: In order to identify an effect of the Preparation Example 6 having the highest docking score in Experimental Example 1 on activity of the AMP-activated protein kinase (AMPK), a kinase assay was performed. The kinase assay was performed as follows. […] Then, purified AMP-activated protein kinase and ATP were allowed to react on a substrate peptide for the AMP-activated protein kinase, and degrees of luminescence thereof were shown as EC50 in Table 3 and FIG. 3.

Half-life test = test: Half-life test
Text: In order to identify whether the Preparation Example 6 according to the present invention can be orally administered, a half-life of the compound was checked. […] The results are illustrated in FIG. 18.

[3] = test system: Salmonella typhimurium TA100
Protocol: as §1

[4] = test system: amyloid-beta peptide1-42 degenerative neurological disease-induced mice; test: Probe test (Morris water maze, platform removed); type: in vivo, ICR mice; conditions: donepezil group, 90 seconds without platform, p<0.01 vs beta-amyloid group
Protocol: (§2) In order to induce a degenerative neurological disease, the experimental animals of Preparatory Example 1 were anesthetized by inhalation with 2.5% isoflurane. Then, 1 μg of amyloid-beta peptide1-42, a degenerative neurological disease-inducing substance, was administered to the animals at both hippocampal positions (AP: −2.3, L: ±2.0, H: −1.5) using a stereotaxic apparatus. […] For the administration, 1 μl was injected, at a flow rate of 0.2 μl/min, with a […] gas-tight glass syringe (Hamilton, Reno, NV, USA) using a perfusion pump (Pump 22, Harvard Apparatus, South Natick, MA, USA). Subsequently, the syringe was allowed to stand for 5 minutes and then removed.
(§3) Then, a degenerative neurological disease was induced as in Preparation Example 2.
(§4) A circular pool (diameter: 120 cm, height: 75 cm) was filled with water to a depth of 25±1 cm as in FIG. 4, and a 24 cm platform was prepared by hiding it 1 cm below the water surface. Space cues were installed on the four sides of the wall so that the aminals can identify locations, and skimmed milk powder was dissolved into water so that the animals cannot identify the platform with naked eyes. One day before the experiment, all the experimental animals were allowed to swim freely for 1 minute in a water bath having no platform, so that the animals can adapt to the swimming situation. After that, a test group was allowed to start, in any order, from two of the three quadrants except the quadrant where the platform was placed, and allowed to find the platform for 60 seconds. In a case where an animal finds the platform, the animal was allowed to stay thereon for 20 seconds. […] As soon as end of the position learning time, which is the 20-second staying time, the animal was allowed to start again from any quadrant, and the time and distance to reach the platform were measured. The procedure was performed four times a day, and all procedures were taken with a camera and analyzed with a video tracking system (Panlab, USA). Probe trials were made on the fifth day after the four-day experiment in toal was completed. The test group was allowed to swim freely for 90 seconds without the platform, thereby performing evaluation on whether the test group holds a memory of the platform location. The results are illustrated in FIGS. 5 to 7.
The results are illustrated in FIGS. 8 and 9.

[5] = test system: amyloid-beta peptide1-42 degenerative neurological disease-induced mice; test: Morris water maze test; type: in vivo, ICR mice; conditions: donepezil group
Text: Six-week-old ICR mice (male) were purchased, and then examined for general health for 6 days while subjecting them to quarantine and acclimation under an environment of animal breeding room. Then, healthy individuals were selected and used for the experiment. Identification of each individual was made by marking the number of each individual on the tail using a permanent marker, and identification of a breeding box was made by attaching an individual identification card on which test number, test substance name, test item, date of acquisition, acclimation period, date of grouping, test period, sex/animal number, and person in charge are indicated.
as §2, §3
After induction of the degenerative neurological disease, the following test was conducted after a one-day recovery period passed.
as §4

Compound: O=[N+]([O-])c1ccc2c(c1)Cc1ccccc1-2 [2-Nitrofluorene, 2-nitrofluorene, reference compound]
Reverse mutation [factor] w/o S-9 mix ([1]; TA98, without S-9, factor versus control): 915.0]
Reverse mutation/dish (mean ± SD) w/o S-9 mix ([1]; TA98, without S-9, Preparation Example 6 at 200 μg/plate, 2-Nitrofluorene concentration 2): 290 ± 8

Compound: NC(=O)c1ncn([C@@H]2O[C@H](CO)[C@@H](O)[C@H]2O)c1N [AICAR, reference compound]
EC50 [2]: 299 nM

half-life (Half-life test): 8 to 10 min
Compound: Oc1ccc(C=Cc2cc(O)cc(O)c2)cc1 [Resveratrol, reference compound]

Compound: [N-]=[N+]=[N-] [Sodium azide, sodium azide, reference compound]
Reverse mutation [factor] w/o S-9 mix ([3]; TA100, without S-9, factor versus control): [5.5]
Reverse mutation/dish (mean ± SD) w/o S-9 mix ([3]; TA100, without S-9, Preparation Example 6 at 200 μg/plate, Sodium azide concentration 1): 618 ± 13

Compound: COc1cc2c(cc1OC)C(=O)C(CC1CCN(Cc3ccccc3)CC1)C2 (stereo not drawn) [donepezil, reference compound]
swimming time in the target quadrant [4]: 39.04 (±8.68) seconds
maximum time to find the platform (escape latency) [5]: 111.99 (±22.59) seconds
minimum time to find the platform (escape latency) [5]: 30.82 (±13.96) seconds
